This passage reports EC50 and IC50 results from patent US7998974B2, “Fused heterocyclic compounds and their use as sirtuin modulators” (Sirtris Pharmaceuticals, Inc., priority 2005, dated 2011).

The target in one assay is T1, SIRT1 (Homo sapiens, UniProt Q96EB6).
T1 sequence (Q96EB6 1-747): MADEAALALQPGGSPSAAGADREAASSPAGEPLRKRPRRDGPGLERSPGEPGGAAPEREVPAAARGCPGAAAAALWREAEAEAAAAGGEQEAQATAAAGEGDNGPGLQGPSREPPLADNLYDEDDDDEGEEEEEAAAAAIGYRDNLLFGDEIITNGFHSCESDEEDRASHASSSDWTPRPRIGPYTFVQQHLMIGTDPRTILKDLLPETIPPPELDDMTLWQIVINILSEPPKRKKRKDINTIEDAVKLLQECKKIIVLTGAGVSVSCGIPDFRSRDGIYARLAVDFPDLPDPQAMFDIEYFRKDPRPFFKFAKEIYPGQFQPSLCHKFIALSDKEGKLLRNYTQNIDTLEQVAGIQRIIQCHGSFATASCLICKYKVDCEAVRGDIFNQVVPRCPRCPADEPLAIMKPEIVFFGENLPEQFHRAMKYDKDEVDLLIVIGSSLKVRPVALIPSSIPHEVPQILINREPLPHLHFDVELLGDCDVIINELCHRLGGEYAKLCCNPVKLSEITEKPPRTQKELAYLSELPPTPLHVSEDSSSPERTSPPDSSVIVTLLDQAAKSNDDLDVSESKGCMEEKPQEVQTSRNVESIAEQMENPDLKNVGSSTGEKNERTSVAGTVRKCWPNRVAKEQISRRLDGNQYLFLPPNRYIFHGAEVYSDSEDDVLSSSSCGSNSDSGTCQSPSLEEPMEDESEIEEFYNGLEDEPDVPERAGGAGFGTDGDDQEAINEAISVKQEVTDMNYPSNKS
The experiment in a line: Fluorescence polarization or mass spectrometry based assay to identify modulators of SIRT1 activity.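 Further: deacetylation of a fluorophore-tagged p53-derived acetyl peptide by SIRT1, detected as fluorescence polarization after trypsin cleavage and streptavidin binding, compounds tested at 11 doses from 0.7 to 100 µM.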 The class given is biochemical. Particulars: activation of SIRT1 (Table 3); read-out: ED50 (the source's name). In general terms: Polarisation of emitted light reports the rotation of a fluorescent probe.

The next assay concerns the target T2, human SIRT3 (Homo sapiens, UniProt Q9NTG7).
T2 sequence (Q9NTG7 102-399): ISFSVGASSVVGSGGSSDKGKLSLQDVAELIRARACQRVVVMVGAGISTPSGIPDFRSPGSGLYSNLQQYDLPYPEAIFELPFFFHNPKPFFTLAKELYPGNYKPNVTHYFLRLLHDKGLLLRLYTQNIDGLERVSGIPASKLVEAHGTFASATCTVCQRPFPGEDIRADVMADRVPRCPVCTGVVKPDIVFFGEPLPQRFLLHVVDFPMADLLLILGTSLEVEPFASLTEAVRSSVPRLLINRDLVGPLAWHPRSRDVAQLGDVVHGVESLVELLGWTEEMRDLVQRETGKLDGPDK
The experiment in a line: Fluorescence polarization assay to identify modulators of SIRT3 activity. The class given is biochemical. Particulars: for EC50: activation of SIRT3 (Table 5), read-out: ED50 (the source's name); for IC50: inhibition of SIRT3 (Table 6). From the text:
A fluorescence polarization assay was used to identify modulators of SIRT3 activity. The same assay may be used to identify modulators of any sirtuin protein. The assay utilizes a peptide substrate based on a fragment of Histone H4, a known sirtuin deacetylation target. The substrate contains a peptide having 14 amino acid residues as follows: Biotin-GASSHSK(Ac)VLK(MR121) (SEQ ID NO: 3) wherein K(Ac) is an acetylated lysine residue. The peptide is labeled with the fluorophore MR121 (excitation 635 nm/emission 680 nm) at the C-terminus and biotin at the N-terminus.
The peptide substrate is exposed to a sirtuin protein in the presence of NAD^+ to allow deacetylation of the substrate and render it sensitive to cleavage by trypsin. Trypsin is then added and the reaction is carried to completion (i.e., the deacetylated substrate is cleaved) releasing the MR121 fragment. Streptavidin is then added to the reaction where it can bind both the uncleaved substrate (i.e., any remaining acetylated substrate) and the non-fluorescent portion of the cleaved peptide substrate (i.e., the biotin containing fragment). The fluorescence polarization signal observed for the full length peptide substrate bound to streptavidin is higher than the fluorescence polarization signal observed for the released MR121 C-terminal fragment. Therefore, the fluorescence polarization obtained is inversely proportional to the level of deacetylation (e.g., the signal is inversely proportional to the activity of the sirtuin protein). Results are read on a microplate fluorescence polarization reader (Molecular Devices Spectramax MD) with appropriate excitation and emission filters.
The fluorescence polarization assays may be conducted as follows: 0.5 μM peptide substrate and 50 μM βNAD^+ is incubated with 2 nM of SIRT3 for 60 minutes at 37° C. in a reaction buffer (25 mM Tris-acetate pH8, 137 mM Na—Ac, 2.7 mM K—Ac, 1 mM Mg—Ac, 0.1% Pluronic F127, 10 mM CaCl2, 1 mM TCEP, 0.025% BSA). Test compounds are solubilized in DMSO and are added to the reaction at 11 concentrations ranging from 0.7 μM to 100 μM. The SIRT3 protein used in the assays corresponded to amino acid residues 102-399 of human SIRT3 with an N-terminal His-tag. The protein was overexpressed in E. coli and purified on a nickel chelate column using standard techniques. After the 60 minute incubation with SIRT3, nicotinamide is added to the reaction to a final concentration of 3 mM to stop the deacetylation reaction and 0.5 μg/mL of trypsin is added to cleave the deacetylated substrate. The reaction is incubated for 30 minutes at 37° C. in the presence of 1 mM streptavidin. Fluorescent polarization is determined at excitation (650 nm) and emissions (680 nm) wavelengths. The level of activity of the sirtuin protein in the presence of the various concentrations of test compound are then determined and may be compared to the level of activity of the sirtuin protein in the absence of the test compound, and/or the level of activity of the sirtuin proteins in the negative control (e.g., level of inhibition) and positive control (e.g., level of activation) described below.
A control for activation of sirtuin activity is conducted using 0.5 μg/mL of sirtuin protein to reach baseline deacetylation of the substrate (e.g., to determine normalized sirtuin activity).

On to `Cc1csc(NC(=O)CSCC(=O)O)c1-c1nc2ccccc2s1` [Compound 5], for which the values for the EC50 on SIRT1 and on human SIRT3 were under 50 µM and 101 to 150 µM, respectively. For `Nc1nc2ccc(-c3nc4ccccc4[nH]3)cc2s1` [Compound 14], the EC50 on SIRT1 and at human SIRT3 was 101 to 150 µM throughout.

With `COc1ccc(-c2nc3c(C(=O)NC(CC(=O)O)C4CCCCC4)cccn3c2NC(C)(C)C)cc1[N+](=O)[O-]` (centres unmarked) [Compound 29], the EC50 at SIRT1 and on human SIRT3 was over 150 µM each time. On to `N#Cc1ccc(-c2nc3c(C(=O)NC(CC(=O)O)C4CCCCC4)cccn3c2NCc2ccccc2)cc1` (centres unmarked) [Compound 32], for which the EC50 is 51 to 100 µM on SIRT1 and under 50 µM at human SIRT3. The matching figures for `CC(=O)Nc1ccc(-c2nc3c(C(=O)NC(CC(=O)O)C4CCCCC4)cccn3c2NCc2ccccc2)cc1` (centres unmarked) [Compound 37]: 51 to 100 µM and 101 to 150 µM. `CC(NC(=O)c1cccn2c(NCC3CCCO3)c(-c3ccc(Cl)cc3)nc12)C(=O)NCCC#N` (centres unmarked) [Compound 43]: the EC50 on SIRT1 was under 50 µM; on human SIRT3, 51 to 100 µM. On to `CC(NC(=O)c1cccn2c(NCC3CCCO3)c(-c3ccc(N(C)C)cc3)nc12)C(=O)NCCC#N` (centres unmarked) [Compound 45], for which the EC50 on SIRT1 is 51 to 100 µM; on human SIRT3, over 150 µM. Take `COc1ccc(-c2nc3c(C(=O)NC(CC(=O)O)c4cccc(C)c4)cccn3c2Nc2c(C)cccc2C)cc1[N+](=O)[O-]` (centres unmarked) [Compound 67]: the EC50 at human SIRT3 was over 150 µM.

For `COc1cccc(-c2nc3c(C(=O)NC(CC(=O)O)C4CCCCC4)cccn3c2NCc2ccccc2)c1` (centres unmarked) [Compound 69], on human SIRT3, the EC50 fell in the range of 51 to 100 µM. The same measure, in the same setting: next, `Cc1cccc(C)c1Nc1c(-c2ccc(C#N)cc2)nc2c(C(=O)NC(CC(=O)O)C3CCCCC3)cccn12` (centres unmarked) [Compound 70]: over 150 µM; `CCCCNc1c(-c2ccc(F)cc2)nc2c(C(=O)NC(CC(=O)O)c3cccc([N+](=O)[O-])c3)cccn12` (centres unmarked) [Compound 71]: 51 to 100 µM. On the same count and under the same terms, as for `CCCCNc1c(-c2ccc(C#N)cc2)nc2c(C(=O)NC(CC(=O)O)c3cccc([N+](=O)[O-])c3)cccn12` (centres unmarked) [Compound 72], the figure is 51 to 100 µM; as for `COc1ccc(-c2nc3c(C(=O)NC(CC(=O)O)c4cccc([N+](=O)[O-])c4)cccn3c2NCc2ccccc2)cc1[N+](=O)[O-]` (centres unmarked) [Compound 73], 51 to 100 µM.

Regarding `Cc1cccc(C)c1Nc1c(-c2ccc(C#N)cc2)nc2c(C(=O)NC(CC(=O)O)c3cccc([N+](=O)[O-])c3)cccn12` (centres unmarked) [Compound 74], the EC50 on human SIRT3 was over 150 µM.

Regarding `CCCCNc1c(-c2ccc(OC)c([N+](=O)[O-])c2)nc2c(C(=O)NC(C)C(=O)O)cccn12` (centres unmarked) [Compound 75], on human SIRT3, the EC50 lay in the range of 51 to 100 µM.

With `COc1ccc(-c2nc3c(C(=O)NC(C)C(=O)O)cccn3c2NCc2ccccc2)cc1[N+](=O)[O-]` (centres unmarked) [Compound 76], the EC50 on human SIRT3 was under 50 µM. Turning to `CC(C)(C)Nc1c(-c2ccc(F)cc2)nc2c(C(=O)NC(CC(=O)O)C3CCCCC3)cccn12` (centres unmarked) [Compound 78], on human SIRT3, the EC50 lay within 101 to 150 µM. For `O=C(O)CC(NC(=O)c1cccn2c(NCc3ccccc3)c(-c3ccc(F)cc3)nc12)C1CCCCC1` (centres unmarked) [Compound 79], the EC50 on human SIRT3 fell in the range of 51 to 100 µM. Same read-out and setting: as for `COc1ccc(-c2nc3cc(C(=O)NC(CC(=O)O)C4CCCCC4)ccn3c2NC2CCCCC2)cc1OC` (centres unmarked) [Compound 80], the figure is 51 to 100 µM. Same read-out and setting: next, `Cc1ccc(C(CC(=O)O)NC(=O)c2ccn3c(NC4CCCCC4)c(-c4ccc(C#N)cc4)nc3c2)cc1` (centres unmarked) [Compound 81]: 51 to 100 µM.

On to `Nc1ccc(-c2nc3ccc(-c4nc5ccc(N)cc5[nH]4)cc3[nH]2)cc1` [Compound 83], for which the EC50 at human SIRT3 was over 150 µM. Take `Nc1ccc(C(=O)Nc2nc3cc4sc(NC(=O)c5ccc(N)cc5)nc4cc3s2)cc1` [Compound 86]: the IC50 (in general, the point on the concentration scale where inhibition reaches its midpoint) on human SIRT3 is 51 to 100 µM. On the same count and under the same terms, as for `Cc1ccccc1C(=O)N1CCN(C(=O)c2cccn3c(NCc4ccccc4)c(C(C)C)nc23)CC1` [Compound 87], the figure is 101 to 150 µM; as for `CN(C)c1ccc(-c2nc3ccc(C(=O)NCC(=O)NCC4CC4)cn3c2NC2CCCCC2)cc1` [Compound 88], under 50 µM. The same measure, in the same setting: next, `Cc1cc(C(=O)Nc2ccc(-c3nc4ccc(C(=O)NCCCN5CCCC5=O)cn4c3NC3CCCCC3)cc2)no1` [Compound 89]: 101 to 150 µM.
